Results reported in PubChem BioAssay (NCI).
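Exposure lasted 48 hours, with cells grown in 96-well plates and compounds tested at five concentrations. GI50 is the concentration that inhibits growth by half. TGI denotes the concentration required for complete inhibition of growth.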

Tests used:
Assay in all cases: NCI anticancer screen, dose series, 48 h
786-0 renal = test system: 786-0 renal
A498 renal = test system: A498 renal
A549 NSCLC = test system: A549 NSCLC
ACHN renal = test system: ACHN renal
BT-549 breast = test system: BT-549 breast
CAKI-1 renal = test system: CAKI-1 renal
CCRF-CEM leukemia = test system: CCRF-CEM leukemia
COLO 205 colon = test system: COLO 205 colon
DU-145 prostate = test system: DU-145 prostate
EKVX NSCLC = test system: EKVX NSCLC
HCC-2998 colon = test system: HCC-2998 colon
HCT-116 colon = test system: HCT-116 colon
HCT-15 colon = test system: HCT-15 colon
HL-60(TB) leukemia = test system: HL-60(TB) leukemia
HOP-62 NSCLC = test system: HOP-62 NSCLC
HOP-92 NSCLC = test system: HOP-92 NSCLC
HS 578T breast = test system: HS 578T breast
HT29 colon = test system: HT29 colon
IGROV1 ovarian = test system: IGROV1 ovarian
K-562 leukemia = test system: K-562 leukemia
KM12 colon = test system: KM12 colon
LOX IMVI melanoma = test system: LOX IMVI melanoma
M14 melanoma = test system: M14 melanoma
MALME-3M melanoma = test system: MALME-3M melanoma
MCF7 breast = test system: MCF7 breast
MDA-MB-231 breast = test system: MDA-MB-231 breast
MDA-MB-435 = test system: MDA-MB-435
MDA-MB-468 breast = test system: MDA-MB-468 breast
MOLT-4 leukemia = test system: MOLT-4 leukemia
NCI-H226 lung = test system: NCI-H226 lung
NCI-H23 lung = test system: NCI-H23 lung
NCI-H460 lung = test system: NCI-H460 lung
NCI-H522 lung = test system: NCI-H522 lung
NCI/ADR-RES ovarian = test system: NCI/ADR-RES ovarian
OVCAR-3 ovarian = test system: OVCAR-3 ovarian
OVCAR-4 ovarian = test system: OVCAR-4 ovarian
OVCAR-5 ovarian = test system: OVCAR-5 ovarian
OVCAR-8 ovarian = test system: OVCAR-8 ovarian
PC-3 prostate = test system: PC-3 prostate
RPMI-8226 leukemia = test system: RPMI-8226 leukemia
RXF 393 renal = test system: RXF 393 renal
SF-268 CNS = test system: SF-268 CNS
SF-295 CNS = test system: SF-295 CNS
SF-539 CNS = test system: SF-539 CNS
SK-MEL-2 melanoma = test system: SK-MEL-2 melanoma
SK-MEL-28 melanoma = test system: SK-MEL-28 melanoma
SK-MEL-5 melanoma = test system: SK-MEL-5 melanoma
SK-OV-3 ovarian = test system: SK-OV-3 ovarian
SN12C renal = test system: SN12C renal
SNB-19 CNS = test system: SNB-19 CNS
SR leukemia = test system: SR leukemia
SW-620 colon = test system: SW-620 colon
T-47D breast = test system: T-47D breast
TK-10 renal = test system: TK-10 renal
U251 CNS = test system: U251 CNS
UACC-257 melanoma = test system: UACC-257 melanoma
UACC-62 melanoma = test system: UACC-62 melanoma
UO-31 renal = test system: UO-31 renal

Cc1cc2c(c(O)c1Br)-c1ncoc1C(=O)[C@]1(C)CC[C@H](C(C)C)[C@H]21
GI50 (786-0 renal): 7.18 µM
TGI (786-0 renal): 21.9 µM
GI50 (A498 renal): > 100 µM
TGI (A498 renal): > 100 µM
GI50 (A549 NSCLC): 4.33 µM
TGI (A549 NSCLC): 29.6 µM
GI50 (ACHN renal): 10.1 µM
TGI (ACHN renal): 34 µM
GI50 (BT-549 breast): 4.64 µM
TGI (BT-549 breast): 17.1 µM
GI50 (CAKI-1 renal): 4.73 µM
TGI (CAKI-1 renal): 33.6 µM
GI50 (CCRF-CEM leukemia): 4.14 µM
TGI (CCRF-CEM leukemia): 27.1 µM
GI50 (COLO 205 colon): 2.61 µM
TGI (COLO 205 colon): 10.3 µM
GI50 (DU-145 prostate): 5 µM
TGI (DU-145 prostate): 21.2 µM
GI50 (EKVX NSCLC): 6.77 µM
TGI (EKVX NSCLC): 28.6 µM
GI50 (HCC-2998 colon): 4.22 µM
TGI (HCC-2998 colon): 17.7 µM
GI50 (HCT-116 colon): 3.17 µM
TGI (HCT-116 colon): 13.8 µM
GI50 (HCT-15 colon): 2.62 µM
TGI (HCT-15 colon): 11.8 µM
GI50 (HL-60(TB) leukemia): 2.19 µM
TGI (HL-60(TB) leukemia): 6.69 µM
GI50 (HOP-62 NSCLC): 4.45 µM
TGI (HOP-62 NSCLC): 21.7 µM
GI50 (HOP-92 NSCLC): 1.03 µM
TGI (HOP-92 NSCLC): 5.99 µM
GI50 (HS 578T breast): 5.34 µM
TGI (HS 578T breast): > 100 µM
GI50 (HT29 colon): 2.77 µM
TGI (HT29 colon): 16 µM
GI50 (IGROV1 ovarian): 4.42 µM
TGI (IGROV1 ovarian): 82.4 µM
GI50 (K-562 leukemia): 2.93 µM
TGI (K-562 leukemia): 11.6 µM
GI50 (KM12 colon): 3.49 µM
TGI (KM12 colon): 35.6 µM
GI50 (LOX IMVI melanoma): 3.71 µM
TGI (LOX IMVI melanoma): 14.5 µM
GI50 (M14 melanoma): 2.85 µM
TGI (M14 melanoma): 14 µM
GI50 (MALME-3M melanoma): 2.61 µM
TGI (MALME-3M melanoma): 11.8 µM
GI50 (MCF7 breast): 3.45 µM
TGI (MCF7 breast): 15.2 µM
GI50 (MDA-MB-231 breast): 4.36 µM
TGI (MDA-MB-231 breast): 18.8 µM
GI50 (MDA-MB-435): 2.07 µM
TGI (MDA-MB-435): 5.23 µM
GI50 (MDA-MB-468 breast): 2.14 µM
TGI (MDA-MB-468 breast): 6.63 µM
GI50 (MOLT-4 leukemia): 3.18 µM
TGI (MOLT-4 leukemia): 14.9 µM
GI50 (NCI-H226 lung): 5.88 µM
TGI (NCI-H226 lung): 22.1 µM
GI50 (NCI-H23 lung): 4.64 µM
TGI (NCI-H23 lung): 47.3 µM
GI50 (NCI-H460 lung): 3.33 µM
TGI (NCI-H460 lung): 14.5 µM
GI50 (NCI-H522 lung): 2.18 µM
TGI (NCI-H522 lung): 6.24 µM
GI50 (NCI/ADR-RES ovarian): 2.82 µM
TGI (NCI/ADR-RES ovarian): 9.19 µM
GI50 (OVCAR-3 ovarian): 3.83 µM
TGI (OVCAR-3 ovarian): 13.6 µM
GI50 (OVCAR-4 ovarian): 4.1 µM
TGI (OVCAR-4 ovarian): 33.7 µM
GI50 (OVCAR-5 ovarian): 5.36 µM
TGI (OVCAR-5 ovarian): 23.1 µM
GI50 (OVCAR-8 ovarian): 5.45 µM
TGI (OVCAR-8 ovarian): 22.4 µM
GI50 (PC-3 prostate): 3.1 µM
TGI (PC-3 prostate): 20.5 µM
GI50 (RPMI-8226 leukemia): 3.35 µM
TGI (RPMI-8226 leukemia): 15.7 µM
GI50 (RXF 393 renal): 4.16 µM
TGI (RXF 393 renal): 17.7 µM
GI50 (SF-268 CNS): 4.27 µM
TGI (SF-268 CNS): 34.3 µM
GI50 (SF-295 CNS): 3.31 µM
TGI (SF-295 CNS): 18 µM
GI50 (SF-539 CNS): 4.08 µM
TGI (SF-539 CNS): 14.9 µM
GI50 (SK-MEL-2 melanoma): 2.51 µM
TGI (SK-MEL-2 melanoma): 8.15 µM
GI50 (SK-MEL-28 melanoma): 4.37 µM
TGI (SK-MEL-28 melanoma): 18.4 µM
GI50 (SK-MEL-5 melanoma): 2.95 µM
TGI (SK-MEL-5 melanoma): 10.3 µM
GI50 (SK-OV-3 ovarian): 6.72 µM
TGI (SK-OV-3 ovarian): > 100 µM
GI50 (SN12C renal): 3.19 µM
TGI (SN12C renal): 12.9 µM
GI50 (SNB-19 CNS): 7.35 µM
TGI (SNB-19 CNS): > 100 µM
GI50 (SR leukemia): 2.14 µM
TGI (SR leukemia): 7.25 µM
GI50 (SW-620 colon): 3.38 µM
TGI (SW-620 colon): 17 µM
GI50 (T-47D breast): 2.89 µM
TGI (T-47D breast): 21.2 µM
GI50 (TK-10 renal): 9.26 µM
TGI (TK-10 renal): 74.3 µM
GI50 (U251 CNS): 4.34 µM
TGI (U251 CNS): 17.1 µM
GI50 (UACC-257 melanoma): 3.58 µM
TGI (UACC-257 melanoma): 18.7 µM
GI50 (UACC-62 melanoma): 2.46 µM
TGI (UACC-62 melanoma): 8.58 µM
GI50 (UO-31 renal): 5 µM
TGI (UO-31 renal): 24.8 µM
